Earlier results in patent US20130195996A1, “METHOD OF PRODUCING PLEURODESIS” (CAREFUSION 2200, INC., priority 2010, published 2013).

Tests used:
[1] = tested on: rabbits
[2] = tested on: rabbits; conditions: single dosage administration of 0.1% silver nitrate (Marchi et al. 2005)
[3] = known methods, high dosages such as 10% concentration (typically 200 mg AgNO3), single dosage
[4] = 2 mL of 0.25% silver nitrate (Vargas et al. 2001)

**Q.** For `O=[N+]([O-])[O-].[Ag+]` [silver nitrate], which “persistence of pleurodesis result” value [1, 4] is on record?
**A.** Its value is “persists for at least a year”.

**Q.** What about the pleurodesis result [1, 4] of the same compound?
**A.** The pleurodesis result was “relatively superior pleurodesis result”.

**Q.** And the pleurodesis ([1]; intrapleural injection of 0.5% silver nitrate (Texeira et al. 2003))?
**A.** Its pleurodesis is “significant pleurodesis”.

**Q.** What about the sclerosing effects ([1]; single intrapleural injection of 0.25% silver nitrate (Texeira et al. 2003)) of the same compound?
**A.** The sclerosing effects was “no sclerosing effects”.

**Q.** What about the pleural inflammation [2] of the same compound?
**A.** Its pleural inflammation is “relatively intense pleural inflammation”.

**Q.** What about the “adverse effects associated with injection into the pleural space” value [3] of the same compound?
**A.** Its value is “severe pain, fever, and relatively large amount of effusion”.
